Here are results for one compound from article PMC10303791 (BMC Biology, 2023).

The term EC50 denotes the concentration at which the effect is half-maximal.

Holding throughout (assay): two-electrode voltage clamp, oocytes, concentration-response
Common to all, as to type: cell-based
Background: Two-electrode voltage clamp is typically applied to oocytes expressing channels or transporters.

Experiment [1] relates to T1, Nanorana parkeri α4β2 nAChR, α4β2(FS).
T1 construct: full-length single subunits, codon-optimized synthetic DNA in pGEMHE, cRNA co-injected in Xenopus laevis oocytes; behaves as 3α:2β (conjecture)
Conditions: agonist; α4:β2 cRNA ratio 1:3; -70 mV; Ba-ND96 with 1 µM atropine; room temperature; high-sensitivity site of biphasic fit, 95% CI.

The target of experiment [2] is T2, Xenopus tropicalis α4β2 nAChR, α4β2(FS) (Xenopus tropicalis, UniProt A0A8J0QAC2+A4IIS6, A4IIS6:S133C).
T2 construct: gene chrna4; full-length single subunits in pCMV-SPORT6 (Dharmacon), cRNA co-injected in Xenopus laevis oocytes; stoichiometry unknown
The source says: (§1) two-electrode voltage clamp, oocytes, concentration-response on Xenopus tropicalis α4β2 nAChR, α4β2(FS)

Experiment [3] addresses T3, Xenopus tropicalis α4β2 nAChR, α4β2(FS) (Xenopus tropicalis, UniProt A0A8J0QAC2+A4IIS6).
T3 construct: gene chrna4; full-length single subunits in pCMV-SPORT6 (Dharmacon), cRNA co-injected in Xenopus laevis oocytes; stoichiometry unknown
From the text: as §1

Experiment [4] deals with T4, Xenopus tropicalis α4β2 nAChR, α4β2(FS) (Xenopus tropicalis, UniProt A0A8J0QAC2+A4IIS6, A4IIS6:F131L/A4IIS6:S133C).
T4 construct: gene chrna4; full-length single subunits in pCMV-SPORT6 (Dharmacon), cRNA co-injected in Xenopus laevis oocytes; stoichiometry unknown
From the text: as §1

On to `CC(=O)OCC[N+](C)(C)C` [acetylcholine], for which the EC50 in experiment [1] is 290 nM; in experiment [2], 18 nM; in experiment [3], 47 nM; in experiment [4], 21 nM.
